One data set deals with BHK-21 cells. As to the kind of experiment: MTT cytotoxicity, BHK-21 cells. Conditions: 24 h peptide treatment, 3-200 µM, 37 °C, absorbance 570 nm, nonlinear regression, at least three independent experiments. Type of data set: cell-based, hamster. Here is the method:
(§1) BHK-21, U-87 MG, A-72, and CRFK cells were seeded in 96-well plates at an initial density of 2 × 10^4 cells per well and incubated for 24 h at 37 °C. Then, serial dilutions of peptides ranging from 3 to 200 µM were added to the cell monolayer and incubated for 24 h at 37 °C. Cytotoxicity was evaluated by adding 5 μL of methylthiazolyldiphenyl-tetrazolium bromide (MTT; cod. M2003, Sigma-Aldrich, St. Louis, MO, USA) to each well. After 4 h of incubation, the plate was emptied, and formazan crystals were solubilized with dimethyl sulfoxide (DMSO; 100%). Cell viability was calculated by measuring absorbance at 570 nm using a microplate reader. The negative control (CTRL−, toxicity control) consisted of cells treated with DMSO, while the positive control (CTRL+, viable cells) included untreated cells.
(§2) All tests were performed in triplicate and expressed as mean ± standard deviation (SD). Graphs and statistical analysis were generated using GraphPad Prism version 9.5.1 for macOS (GraphPad Software, San Diego, CA, USA, www.graphpad.com, accessed on 5 February 2025). The 50% cytotoxic concentration (CC50) and the 50% inhibitory concentration (IC50) were calculated by nonlinear regression analysis based on dose–response curves generated from at least three independent experiments.

For a further data set, the system named is A-72 cells. As to the kind of experiment: MTT cytotoxicity, A-72 cells. The settings on record: 24 h peptide treatment, 3-200 µM, 37 °C, absorbance 570 nm, nonlinear regression, at least three independent experiments. Type of data set: cell-based, canine. Here is the method: as §1, §2
The subject of another data set is CRFK cells. Nature of the data set: MTT cytotoxicity, CRFK cells. It is filed as cell-based, feline. The settings on record: 24 h peptide treatment, 3-200 µM, 37 °C, absorbance 570 nm, nonlinear regression, at least three independent experiments. The procedure: as §1, §2
A further data set has as its system U-87 MG cells. Nature of the data set: MTT cytotoxicity, U-87 MG cells. It is filed as cell-based, human. The settings on record: 24 h peptide treatment, 3-200 µM, 37 °C, absorbance 570 nm, nonlinear regression, at least three independent experiments. Here is the method:
as §1, §2

For data set [1], the system named is BHK-21, A-72, CRFK, and U-87 MG cells. Nature of the data set: MTT cytotoxicity, statements for all tested cell lines. Type of data set: cell-based. The settings on record: 24 h, concentrations of 50 μM and below. The procedure: as §1
In data set [2] the test system is SBV. Conditions: 1 h.
For data set [3], the system named is TOSV. Conditions: 24 h.
Data set [4] concerns TOSV. The settings on record: 24 h. The source holds these as a separate data set.
Data set [5] concerns TOSV. The settings on record: 24 h. This is another data set of the same source.
Data set [6] deals with SBV. The settings on record: 48 h.
Data set [7] has as its system SBV. The settings on record: 48 h. This is another data set of the same source.

Read-outs that look alike come from different tables or passages of the source. No end group written: not given here.

For the substance IFGAIWKGISSLL-NH2 [pantinin-2], the CC50 with BHK-21 cells came to 100.8 µM; in the data set with A-72 cells, 90.7 µM; in the data set with CRFK cells, 82.2 µM; in the data set on U-87 MG cells, 82 µM. Also, in data set [1], the “Cytotoxicity at 50 μM and below” value is on record as “neither pantinin-1 nor pantinin-2 induced any detectable cytotoxicity”. For the same substance, the IC50 came out at 4.8 µM in the data set with SBV [2], 3 µM in the data set on TOSV [3], 3 µM in the data set on TOSV [4] and 3 µM with TOSV [5].

For the substance GILGKLWEGFKSIV-NH2 [pantinin-1], the CC50 in the data set with BHK-21 cells came to 136.6 µM; in the data set with A-72 cells it was 93.6 µM; in the data set on CRFK cells, 93.5 µM; with U-87 MG cells it was 114.3 µM. In addition, the “Cytotoxicity at 50 μM and below” value in data set [1] is “neither pantinin-1 nor pantinin-2 induced any detectable cytotoxicity”. The values for the IC50 in the data set with SBV [2], in the data set on SBV [6] and in the data set with SBV [7] were 12.8 µM, 6 µM and 5.8 µM, respectively.

Broadly, the CC50 is the concentration giving 50% cytotoxicity. Lower therefore signals greater toxicity to the cells. Usually IC50 stands for the point on the concentration scale where inhibition reaches its midpoint.

Source of the values: paper PMC12300298, “Expanding the Antiviral Spectrum of Scorpion-Derived Peptides Against Toscana Virus and Schmallenberg Virus” (Pathogens, 2025).
